Measured values taken from article PMC10447463, “Data-mining unveils structure–property–activity correlation of viral infectivity enhancing self-assembling peptides” (Nature Communications, 2023).
Like-named read-outs stand apart in the source and are kept apart here.

What was measured:
[1] = tested on: HIV-1 infection of TZM-bl cells; assay: HIV-1 infectivity enhancement assay, β-galactosidase luminescence; type: cell-based; details: for Absolute Infectivity / RLU /s (Feb2021): figures match the 1.3 µM column; for Log10 Inf. rel. to EF-C: log10 of HIV-1 infection of TZM-bl cells relative to EF-C, Fig S15 source data, asymmetric std dev errors
[2] = Turbidity, derived count rate of scattered light; type: physicochemical; details: for Zeta Count Rate / kcps: derived count rate of scattered light
Summary of the method: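 Samples: 1 mg/mL in PBS pH 7.4 (from DMSO), 1 d at RT, then diluted in 1 mM KCl immediately before measurement. Triplicates, two independent runs averaged.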

[3] = Zeta-potential measurement; type: physicochemical; details: for Zeta-pot. / mV: zeta potential of peptide, Fig S15 source data
Summary of the method: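 Readout: zeta potential (mV) derived by Smoluchowski from measured electrophoretic mobility. Preformed aggregates (1 mg/mL peptide, PBS pH 7.4, RT for 1 d) were diluted into dilute KCl electrolyte (1 mM) shortly before analysis.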

[4] = Feb2021, Log10 of infectivity relative to EF-C
[5] = Feb2021, infectivity relative to virus only
[6] = Feb2021, n-fold enhancement relative to EF-C
[7] = Feb2021, n-fold infectivity relative to EF-C
[8] = Feb2021 run, infectivity n-fold relative to virus alone
[9] = Feb2021 run, log10 of infectivity relative to EF-C
[10] = Feb2021 run, n-fold infectivity relative to EF-C
[11] = infectivity class (low / medium / high) of each library peptide, main list in c1-c6, same classes repeated in sub-lists of sequences containing the hydrophobicity/charge patterns P+,H0,P+,H0,P0,H0,P0, P+,H0,P0,H0,P0,H0,P0, P+,H0,P0,H0
[12] = category 1 or 0 from count rate, key not given
[13] = mean, std deviation in next column
[14] = mean, std deviation in separate column

Sequence | Log10 of Rel to EFC (Feb2021) [1, 4] | Absolute Infectivity / RLU /s (Feb2021) ([1]; Feb2021) [RLU /s] | n-fold to virus (Feb2021) [1, 5] | Rel-to EFC (Feb-2021) [1, 6] | Rel-to EFC (Feb-2021) [1, 7] | n-fold to virus (Feb2021) [1, 8] | Log10 of Rel to EFC (Feb2021) [1, 9] | Rel-to EFC (Feb-2021) [1, 10] | infectivity [1, 11] | Log10 Inf. rel. to EF-C [1] | Zeta Count Rate Category ([2]; category 1 / 0, no key given) | Zeta Count Rate Category [2, 12] | Zeta Count Rate / kcps [2] [kcps] | Zeta Count Rate / kcps [2, 13] [kcps] | Zeta Count Rate / kcps [2, 14] [kcps] | Zeta category ( +1 = if > 4 mV;-1 = if < -4 mV; 0 = -4mV to 4 mV) [3] | Zeta category ( +1 = if > 4 mV;-1 = if < -4 mV; 0 = -4mV to 4 mV) ([3]; category from zeta potential) | Zeta Pot. / mV ([3]; mean, Std Zeta in next column) [mV] | Zeta Pot. / mV ([3]; mean, Std in separate column) [mV] | Zeta-pot. / mV [3] [mV] | other results
QCKIKQII [CK6] | -2.189 | 206.7 | 0.2719 | 0.006472 | 0.006472 | 0.2719 | -2.189 | 0.006472 | low | -2.189 | 1 | 1 | 301 | 301 | 301 | 1 (+1 = if > 4 mV) | 1 (+1 = if > 4 mV) | 11 | 11 | 11 | Zeta Pot. / mV [3]: 11 mV
QCKIKQIINM [CK5] | -0.4555 | 11186.66667 | 14.72 | 0.3503 | 0.3503 | 14.72 | -0.4555 | 0.3503 | medium | -0.4555 | 1 | 1 | 20551.06667 | 20551.06667 | 20551.06667 | 1 (+1 = if > 4 mV) | 1 (+1 = if > 4 mV) | 10.4 | 10.4 | 10.4 | Zeta Pot. / mV [3]: 10.4 mV
RGDCKIKIQINM [TM45] | -0.6272 |  |  | 0.2359 |  | 9.913 | -0.6272 | 0.2359 | medium | -0.6272 |  | 1 |  | 1623 | 1623 | 1 (+1 = if > 4 mV) | 1 (+1 = if > 4 mV) | 11.3 | 11.3 | 11.3 | 
RGDKIKIQI [MG14] | -1.805 |  |  | 0.01566 |  | 0.6579 | -1.805 | 0.01566 | low | -1.805 |  | 1 |  | 298.1 | 298.1 | 0 (0 = -4mV to 4 mV) | 0 (0 = -4mV to 4 mV) | -0.899 | -0.899 | -0.899 | 
RGDKIKIQIC [MG7/CN1] | -0.07993 |  |  | 0.8319 |  | 34.95 | -0.07993 | 0.8319 |  | -0.07993 |  | 1 |  | 7509 | 7509 | 1 (+1 = if > 4 mV) | 1 (+1 = if > 4 mV) | 16.5 | 16.5 | 16.5 | infectivity ([1]; infectivity class (low / medium / high) of the peptide in the sequence-pattern analysis, Fig. S22-A4, class limits not given): high
